Data taken from patent publication US12421205B2, “GLP-1 receptor agonist” (HYUNDAI PHARM CO., LTD., priority 2019, dated 2025).

Assays:
human GLP-1 receptor = molecular target: T1, human GLP-1 receptor (Homo sapiens, UniProt P43220); assay: cAMP activity test (cAMP dynamic HTRF kit) in CHO-K1/GLP-1 receptor-expressing cells; format: cell-based; settings: cAMP activity, CHO-K1/GLP-1 receptor-expressing cells; read-out: EC50
T1 construct: host or cells: CHO-K1
Procedure, shortened: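 Cells in HBSS with 0.1% BSA, 0.5 mM IBMX and 5 mM HEPES, then lysed; cAMP-d2 and anti-cAMP cryptate added for 3 h. HTRF read-out, where FRET signal is inversely proportional to intracellular cAMP.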

hERG = molecular target: T2, hERG (Homo sapiens, UniProt Q12809); assay: hERG inhibition test (Predictor hERG Fluorescence Polarization assay kit); format: binding; settings: probe kit Tracer (fluorescent hERG ligand), hERG % inhibition at 10 uM, relative to E-4031 and solvent control
T2 construct: purchased Invitrogen PV5365
T2 sequence (Q12809 whole entry): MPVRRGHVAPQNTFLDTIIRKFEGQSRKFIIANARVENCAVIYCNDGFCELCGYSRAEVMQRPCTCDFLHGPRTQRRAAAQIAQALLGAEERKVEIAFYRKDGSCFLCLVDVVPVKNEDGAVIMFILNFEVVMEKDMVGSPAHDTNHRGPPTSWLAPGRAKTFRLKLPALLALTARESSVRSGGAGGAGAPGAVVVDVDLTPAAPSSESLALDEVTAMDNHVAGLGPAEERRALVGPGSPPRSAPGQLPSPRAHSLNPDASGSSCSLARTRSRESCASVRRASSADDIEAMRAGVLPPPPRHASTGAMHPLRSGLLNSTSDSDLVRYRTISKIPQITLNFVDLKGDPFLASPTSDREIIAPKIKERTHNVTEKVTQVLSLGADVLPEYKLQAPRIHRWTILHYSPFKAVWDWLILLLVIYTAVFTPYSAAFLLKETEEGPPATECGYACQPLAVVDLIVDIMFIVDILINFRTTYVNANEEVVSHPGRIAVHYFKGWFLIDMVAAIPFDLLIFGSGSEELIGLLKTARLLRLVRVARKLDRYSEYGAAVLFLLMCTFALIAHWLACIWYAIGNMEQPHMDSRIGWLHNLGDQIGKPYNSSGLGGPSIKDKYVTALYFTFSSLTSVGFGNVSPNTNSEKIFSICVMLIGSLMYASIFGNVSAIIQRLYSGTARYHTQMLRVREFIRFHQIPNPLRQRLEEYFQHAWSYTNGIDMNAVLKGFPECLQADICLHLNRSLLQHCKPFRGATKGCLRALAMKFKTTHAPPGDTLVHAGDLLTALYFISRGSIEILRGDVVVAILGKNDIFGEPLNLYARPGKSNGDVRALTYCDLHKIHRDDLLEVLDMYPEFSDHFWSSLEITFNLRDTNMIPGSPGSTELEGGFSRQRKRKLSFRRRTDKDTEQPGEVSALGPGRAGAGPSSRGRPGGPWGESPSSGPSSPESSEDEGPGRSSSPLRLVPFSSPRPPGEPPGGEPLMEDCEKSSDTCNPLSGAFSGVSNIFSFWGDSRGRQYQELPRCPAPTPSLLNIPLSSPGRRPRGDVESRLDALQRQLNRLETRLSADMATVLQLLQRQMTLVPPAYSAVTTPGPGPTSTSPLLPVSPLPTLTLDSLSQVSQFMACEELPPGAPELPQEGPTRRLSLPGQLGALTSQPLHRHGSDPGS
Procedure, shortened: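 Competitive fluorescence-polarization binding of fluorescent tracer to hERG membrane preparation, 2.5 h at room temperature, mP read at 531/579 nm. % inhibition at 10 uM test compound, scaled between solvent control (0%) and E-4031 (100%).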

T1 sequence (P43220 24-463): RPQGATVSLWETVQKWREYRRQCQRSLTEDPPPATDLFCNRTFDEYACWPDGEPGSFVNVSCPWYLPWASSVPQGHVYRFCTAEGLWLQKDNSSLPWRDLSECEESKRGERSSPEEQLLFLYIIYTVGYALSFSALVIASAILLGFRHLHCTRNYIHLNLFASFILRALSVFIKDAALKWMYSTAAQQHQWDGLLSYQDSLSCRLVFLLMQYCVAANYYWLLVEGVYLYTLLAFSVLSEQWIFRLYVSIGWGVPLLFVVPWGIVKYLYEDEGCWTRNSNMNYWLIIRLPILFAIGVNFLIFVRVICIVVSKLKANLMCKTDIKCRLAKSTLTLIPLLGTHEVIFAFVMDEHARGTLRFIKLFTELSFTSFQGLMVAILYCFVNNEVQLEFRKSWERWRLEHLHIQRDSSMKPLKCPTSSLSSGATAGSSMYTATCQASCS

In the case of `O=C(O)c1ccc2nc(Cc3ccc(-c4cccc(OCc5cccnc5)n4)c(F)c3)n(C[C@@H]3CCO3)c2c1` [Example 129, (S)-2-(3-fluoro-4-(6-(pyridin-3-ylmethoxy)pyridin-2-yl)benzyl)-1-(oxetan-2-ylmethyl)-1H-benzo[d]imidazole-6-carboxylic acid], the EC50 (human GLP-1 receptor) is reported as 490 nM and the inhibition at 2.5 h, 10 µM (hERG) is reported as -6.27%.

Work on `N#Cc1ccc(COc2cccc(-c3ccc(Cc4nc5ccc(C(=O)O)cc5n4CC4CCCO4)cc3F)n2)c(F)c1` (stereo not drawn) [Example 130, 2-(4-(6-((4-cyano-2-fluorobenzyl)oxy)pyridin-2-yl)-3-fluorobenzyl)-1-((tetrahydrofuran-2-yl)methyl)-1H-benzo[d]imidazole-6-carboxylic acid] yielded an EC50 (human GLP-1 receptor) of 21 nM and an inhibition at 2.5 h, 10 µM (hERG) of -6.76%.

`O=C(O)c1ccc2nc(Cn3cc(-c4cccc(OCc5ccc(Cl)cc5F)n4)cn3)n(C[C@@H]3CCO3)c2c1` [Example 131, (S)-2-((4-(6-((4-chloro-2-fluorobenzyl)oxy)pyridin-2-yl)-1H-pyrazol-1-yl)methyl)-1-(oxetan-2-ylmethyl)-1H-benzo[d]imidazole-6-carboxylic acid] showed an EC50 (human GLP-1 receptor) of 1600 nM and an inhibition at 2.5 h, 10 µM (hERG) of -0.97%.

`O=C(O)c1ccc2nc(Cc3ccc(-c4cccc(OCc5nc6ccccc6s5)n4)c(F)c3)n(C[C@@H]3CCO3)c2c1` [Example 132, (S)-2-(4-(6-(benzo[d]thiazol-2-ylmethoxy)pyridin-2-yl)-3-fluorobenzyl)-1-(oxetan-2-ylmethyl)-1H-benzo[d]imidazole-6-carboxylic acid] gave an EC50 (human GLP-1 receptor) of 460 nM and an inhibition at 2.5 h, 10 µM (hERG) of -7.11%.

Work on `Cc1cc(-c2cccc(OCc3ccc(C#N)cc3F)n2)ccc1Cc1nc2ccc(C(=O)O)cc2n1C[C@@H]1CCO1` [Example 133, (S)-2-(4-(6-((4-cyano-2-fluorobenzyl)oxy)pyridin-2-yl)-2-methylbenzyl)-1-(oxetan-2-ylmethyl)-1H-benzo[d]imidazole-6-carboxylic acid] yielded an EC50 (human GLP-1 receptor) of 14 nM and an inhibition at 2.5 h, 10 µM (hERG) of 41%.

For `Cc1cc(-c2cccc(OCc3ccc(Cl)cc3F)n2)ccc1Cc1nc2ccc(C(=O)O)cc2n1C[C@@H]1CCO1` [Example 134, (S)-2-(4-(6-((4-chloro-2-fluorobenzyl)oxy)pyridin-2-yl)-2-methylbenzyl)-1-(oxetan-2-ylmethyl)-1H-benzo[d]imidazole-6-carboxylic acid], the EC50 (human GLP-1 receptor) was 190 nM and the inhibition at 2.5 h, 10 µM (hERG) was 28.3%.
